Measured values taken from patent publication US10799595B2, “Pyrrolobenzodiazepine conjugates” (priority 2016, dated 2020).

Assays:
[1] = system: DU145; test: In vitro testing of compound 10, CellTiter-Glo viability, +/- β-glucuronidase, 72 hour assay; type: cell-based; conditions: Homo sapiens, DU-145, 72 h
Protocol: DU145 (2000/well, 72 hour assay) and MDA-MB-361 (5000/well, 144 hour assay) cells were plated in culture medium to tissue culture-treated 96-well plates at a volume of 80 μL per well and allowed to adhere overnight. For warhead dilutions, first a 60× concentration of each dose to be tested was prepared by diluting the test articles in DMSO. The 60× dilutions of warhead were then further diluted to a 5× concentration in either cell culture medium alone or cell culture medium containing 5× β-glucuronidase enzyme (Sigma Cat # G0799-25KU). […] DMSO alone diluted to the culture medium was used as the controls. The treated cells were cultured at 37° C./5% CO2 for 72 to 144 hours (depending on established growth kinetics of each particular cell line). At the end of the assay, CellTiter-Glo® (CTG) Luminescent Viability Assay (Promega) was used to determine relative cytotoxicity. 100 μL of CTG reagent was added to each well, and plates were incubated for 10 minutes at room temperature with gentle shaking, absorbance of each sample was read at 560 nm using an EnVision luminometer (Perkin Elmer). The percent cell viability was calculated by the following formula: (average luminescence of treated samples/average luminescence of control samples)×100.
(§1) IC50 values were determined using logistic non-linear regression analysis with GraphPad Prism software.

[2] = system: MDA-MB-361; test: In vitro testing of compound 10, CellTiter-Glo viability, +/- β-glucuronidase, 144 hour assay; type: cell-based; conditions: Homo sapiens, MDA-MB-361, 144 h
Protocol: DU145 (2000/well, 72 hour assay) and MDA-MB-361 (5000/well, 144 hour assay) cells were plated in culture medium to tissue culture-treated 96-well plates at a volume of 80 μL per well and allowed to adhere overnight. For warhead dilutions, first a 60× concentration of each dose to be tested was prepared by diluting the test articles in DMSO. The 60× dilutions of warhead were then further diluted to a 5× concentration in either cell culture medium alone or cell culture medium containing 5× β-glucuronidase enzyme (Sigma Cat # G0799-25KU). 20 μL of cell culture medium containing test article+/−enzyme was added to cells in triplicate wells, and the final dose curve ranged from 6.4 nM to 61 pM in a stepwise 1:4 serial dilution series. DMSO alone diluted to the culture medium was used as the controls. […] 100 μL of CTG reagent was added to each well, and plates were incubated for 10 minutes at room temperature with gentle shaking, absorbance of each sample was read at 560 nm using an EnVision luminometer (Perkin Elmer). The percent cell viability was calculated by the following formula: (average luminescence of treated samples/average luminescence of control samples)×100.
as §1

[3] = system: human tumour cell lines; conditions: cited from earlier work; for activity against a range of human tumour cell lines: quoted from REF 2014 impact study
[4] = system: human tumour xenograft models; conditions: quoted from REF 2014 impact study; cited from earlier work

C=C1C[C@H]2[C@H](O)N(C(=O)OCc3ccc(NC(=O)[C@H](C)NC(=O)[C@@H](NC(=O)CCOCCOCCOCCOCCOCCOCCOCCOCCNC(=O)CCN4C(=O)C=CC4=O)C(C)C)cc3)c3cc(OCCCOc4cc5c(cc4OC)C(=O)N4CC(=C)C[C@H]4[C@H](O)N5C(=O)OCc4ccc(O[C@@H]5O[C@H](C(=O)O)[C@@H](O)[C@H](O)[C@H]5O)c([N+](=O)[O-])c4)c(OC)cc3C(=O)N2C1 [Compound 10]
IC50 ([1]; No glucuronidase): 6.84 µM
IC50 ([1]; With glucuronidase): 0.201 µM
IC50 ([2]; No glucuronidase): 778 nM
IC50 ([2]; With glucuronidase): 32 nM

C=C1C[C@H]2C=Nc3cc(OCCCOc4cc5c(cc4OC)C(=O)N4CC(=C)C[C@H]4C=N5)c(OC)cc3C(=O)N2C1 [SG2000]
times less cytotoxic than SG2057 ([3]; see Hartley et al 2012): at least 10 times

C=C1C[C@H]2C=Nc3cc(OCCCCCOc4cc5c(cc4OC)C(=O)N4CC(=C)C[C@H]4C=N5)c(OC)cc3C(=O)N2C1 [SG2057]
activity in human tumour xenograft models [4]: curative activity
activity against a range of human tumour cell lines [3]: picomolar/sub-picomolar activity

COc1ccc(C2=CN3C(=O)c4cc(OC)c(OCCCOc5cc6c(cc5OC)C(=O)N5C=C(c7ccc(OC)cc7)C[C@H]5C=N6)cc4N=C[C@@H]3C2)cc1 [SG2202]
activity in human tumour xenograft models [4]: curative activity
activity against a range of human tumour cell lines [3]: picomolar/sub-picomolar activity
